Experimental data: PMC3922157 (Journal of Antimicrobial Chemotherapy, 2013)
Where two headings read alike, the source gives them in different places.

Assays:
[1] = test system: bloodstream-form T. b. brucei; assay: Alamar blue drug susceptibility assay, bloodstream-form trypanosomes; format: cell-based; details: for Increase in susceptibility on expression of TbAT1: TbAT1 expressed in B48 (Figure S6); for EC50: Trypanosoma brucei
Procedure: (§1) Drug susceptibilities of the bloodstream-form trypanosomes[47] and L. mexicana promastigotes[48] were determined using the Alamar blue assay exactly as described previously, measuring fluorescence in 96-well plates with a FLUOstar Optima (BMG Labtech, Durham, NC, USA) at wavelengths of 544 nm for excitation and 620 nm for emission. EC50 values were calculated by non-linear regression using an equation for a sigmoidal dose–response curve with variable slope (GraphPad Prism 5.0; GraphPad Software Inc., San Diego, CA, USA).

[2] = test system: procyclic T. b. brucei 247MR; format: cell-based
[3] = test system: procyclic T. b. gambiense 386MR; format: cell-based
[4] = test system: Leishmania mexicana promastigotes; assay: Alamar blue drug susceptibility assay, L. mexicana promastigotes expressing T. brucei aquaporins; format: cell-based; details: for Sensitization by expression of TbAQP2: L. mexicana promastigotes expressing TbAQP2 vs empty-vector control
Procedure: as §1
TbAQP2 and TbAQP3 were amplified from genomic DNA by PCR using Phusion polymerase (Thermo Scientific) and subcloned into the pNUS vector for expression in Leishmania.[49] The construct was verified by sequencing before transfection into L. mexicana promastigotes using an Amaxa Nucleofector (program U-33).

TbAQP2 [5] = target: T1, TbAQP2 (Trypanosoma brucei brucei, UniProt Q6ZXT3); assay: cell-based
T1 sequence (Q6ZXT3 whole entry): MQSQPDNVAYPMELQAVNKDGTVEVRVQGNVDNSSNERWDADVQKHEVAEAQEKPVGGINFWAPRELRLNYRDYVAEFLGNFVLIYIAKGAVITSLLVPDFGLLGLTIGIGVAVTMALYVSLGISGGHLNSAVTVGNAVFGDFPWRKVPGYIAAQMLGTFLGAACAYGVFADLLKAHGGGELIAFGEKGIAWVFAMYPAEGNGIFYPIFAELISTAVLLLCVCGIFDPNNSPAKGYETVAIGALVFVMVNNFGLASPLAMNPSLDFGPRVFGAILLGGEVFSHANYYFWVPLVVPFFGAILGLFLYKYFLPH

LAPT1 [6] = details: cited from earlier work
T. b. gambiense = details: cited from earlier work
T. b. rhodesiense = details: cited from earlier work; note: key: highly sensitive (+++); ++: indicated on a relative scale; +: indicated on a relative scale; +/−: indicated on a relative scale; −: indicated on a relative scale; highly resistant to pentamidine or melaminophenyl arsenicals (−−−)
T. b. brucei 247MR = test system: T. b. brucei 247MR; parameters: method as in PMID 9225768; details: cited from earlier work
HAPT1 [7] = target: T2, HAPT1 (Trypanosoma brucei brucei, UniProt Q6ZXT3); assay: [3H]pentamidine high-affinity transport, bloodstream forms
T2 sequence (Q6ZXT3 whole entry): as above

TbAQP2 [8] = target: T1, TbAQP2
LAPT1 [9] = details: 1 μM [3H]pentamidine; for Km: read-out: LAPT1 Km
HAPT1 [10] = target: T2, HAPT1; assay: cell-based; format: cell-based, T. b. brucei
[11] = test system: bloodstream-form T. b. brucei; details: cited from earlier work
LAPT1 [12] = details: 1 μM [3H]pentamidine; for Km: read-out: LAPT1 Km; remark: listed apart in the source
HAPT1 [13] = target: T2, HAPT1; assay: cell-based; format: cell-based, T. b. gambiense
TbAQP3 = target: T3, TbAQP3 (Trypanosoma brucei brucei, UniProt Q6ZXT2); format: cell-based, T. b. brucei; details: 100 nM [3H]pentamidine over 5 min; TbAQP3-transfected promastigotes
T3 construct: expressed in transfected cells; host or cells: Leishmania mexicana promastigotes, pNUS vector
T3 sequence (Q6ZXT2 whole entry): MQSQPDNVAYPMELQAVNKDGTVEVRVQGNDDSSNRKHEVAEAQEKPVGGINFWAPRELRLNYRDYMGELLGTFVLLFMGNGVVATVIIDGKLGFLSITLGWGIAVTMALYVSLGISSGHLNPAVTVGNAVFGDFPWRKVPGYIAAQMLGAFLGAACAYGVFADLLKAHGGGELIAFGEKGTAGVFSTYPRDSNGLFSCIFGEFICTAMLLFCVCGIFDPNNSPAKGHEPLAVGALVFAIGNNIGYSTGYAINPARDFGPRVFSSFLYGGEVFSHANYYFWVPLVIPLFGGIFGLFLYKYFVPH

T. b. brucei = details: cited from earlier work
LAPT1 [14] = assay: [3H]pentamidine low-affinity transport, bloodstream forms; format: cell-based, T. b. brucei; details: for Km: read-out: LAPT1 pentamidine Km
HAPT1 [15] = target: T2, HAPT1; parameters: endogenous in cells; host or cells: bloodstream-form T. b. brucei Lister 427 derivatives (s427 WT, TbAT1-KO, 2T1: endogenous AQP2; B48/AQP2: wild-type TbAQP2 from vector pHDK21, derived from pHD1336); details: cited from earlier work
[16] = test system: N=C(N)c1ccc(OCCCCCOc2ccc(C(=N)N)cc2)cc1; assay: cells, lysate or membranes; details: pH 7.3
[17] = B48 + TbAQP2 vs B48 empty vector (Figure 1)
[18] = P1000 + TbAQP2 vs P1000 empty vector (Figure 1)
Throughout, for susceptibility: key: highly sensitive (+++); ++: indicated on a relative scale; +: indicated on a relative scale; +/−: indicated on a relative scale; −: indicated on a relative scale; highly resistant to pentamidine or melaminophenyl arsenicals (−−−).

Compound: C[C@H]1O[C@@H](n2cnc3c(N)ncnc32)[C@H](O)[C@@H]1O [5′-deoxyadenosine]
- Increase in susceptibility on expression of TbAT1 ([1]; P < 0.001): > 20 fold

Compound: Cl.Cl.NCCS[As](SCCN)c1ccc(Nc2nc(N)nc(N)n2)cc1 [Cymelarsan]
- Reversal of resistance on expression of TbAQP2 [1, 17]: 16.7 fold
- Reversal of resistance on expression of TbAQP2 [1, 18]: 15.0 fold
- Difference in susceptibility ([1]; aqp2 null vs aqp2 null expressing WT AQP2, P < 0.001): 4.1 fold
- Difference in susceptibility ([1]; aqp2 null vs aqp2 null expressing chAQP2/3, P < 0.05): 1.4 fold
- Resistance relative to parental line [2]: 755 fold
- Resistance relative to parental line [3]: 83 fold

Compound: C[C@@H]1[C@H](O)[C@@H](C)/C=C/C=C/C=C/C=C/C=C/C=C/C=C/[C@H](O[C@@H]2O[C@H](C)[C@@H](O)[C@H](N)[C@@H]2O)C[C@@H]2O[C@](O)(C[C@@H](O)C[C@@H](O)[C@H](O)CC[C@@H](O)C[C@@H](O)CC(=O)O[C@H]1C)C[C@H](O)[C@H]2C(=O)O [amphotericin B]
- Sensitization by expression of TbAQP2 [4]: no statistically significant effect

Compound: Nc1ncnc2c1ncn2[C@@H]1O[C@H](CO)C[C@H]1O [cordycepin, 3′-deoxyadenosine]
- Increase in susceptibility on expression of TbAT1 ([1]; P < 0.001): > 20 fold

Compound: N=C(N)c1ccc(/N=N/Nc2ccc(C(=N)N)cc2)cc1 [diminazene]
- Reversal of resistance on expression of TbAQP2 [1, 17]: not affected
- Reversal of resistance on expression of TbAQP2 [1, 18]: not affected
- Sensitization by expression of TbAQP2 [4]: no statistically significant effect
- Ki (TbAQP2 [5]): 100 ± 21 µM

Compound: N=C(N)c1ccc(OCCCCCOc2ccc(C(=N)N)cc2)cc1 [pentamidine]
- Km (LAPT1 [6]; read-out: LAPT1 pentamidine Km, B48 bloodstream forms, ref Bridges et al. 16): 56 ± 7 µM
- Km (LAPT1 [6]; read-out: LAPT1 pentamidine Km, TbAT1-KO bloodstream forms, ref Matovu et al. 14): 50 ± 17 µM
- Km (LAPT1 [6]; read-out: LAPT1 pentamidine Km, WT s427 bloodstream forms, ref De Koning 17): 56 ± 8 µM
- Km (LAPT1 [6]; read-out: published pentamidine Km for LAPT1): 56.2 ± 8.3 µM
- Susceptibility (T. b. gambiense): +++ and +/−
- Reversal of resistance on expression of TbAQP2 [1, 17]: 50 fold
- Reversal of resistance on expression of TbAQP2 [1, 18]: 240 fold
- EC50 [1]: 0.158 ± 0.002 µM
- EC50 ([1]; aqp2/aqp3 null expressing AQP3^sf2, P < 0.02): 0.131 ± 0.003 µM
- Susceptibility (T. b. rhodesiense): +++ and −
- Pentamidine resistance in vivo relative to parental line (T. b. brucei 247MR): > 50 fold
- IC50 (HAPT1 [7]): 0.06 ± 0.017 µM
- Reduction of [3H]pentamidine uptake (HAPT1 [7]; 50 nM [3H]pentamidine, B48 compared with TbAT1-KO control): 15.5 fold
- Increase of [3H]pentamidine uptake on expression of TbAQP2 (HAPT1 [7]; 50 nM pentamidine, B48 + TbAQP2 vs B48): 27.7 fold
- Rate of [3H]pentamidine uptake (TbAQP2 [8]; 50 nM [3H]pentamidine in the presence of 1 mM unlabelled pentamidine): 0.00026 ± 1.8 × 10^−6 pmol/10^7 cells/s
- Rate of [3H]pentamidine uptake (TbAQP2 [8]; 50 nM [3H]pentamidine, over 15 s): 0.032 ± 0.002 pmol/10^7 cells/s
- Increase of [3H]pentamidine uptake (TbAQP2 [8]; 100 nM [3H]pentamidine over 5 min, TbAQP2-expressing promastigotes vs control): ~15 fold
- LAPT1 Vmax (LAPT1 [9]; STIB 247MR procyclics): 0.41 ± 0.10 pmol/10^7 cells/s
- LAPT1 Vmax (LAPT1 [9]; STIB 247WT procyclics): 0.65 ± 0.17 pmol/10^7 cells/s
- Km (LAPT1 [9]; STIB 247MR procyclics): 56 ± 19 µM
- Km (LAPT1 [9]; STIB 247WT procyclics): 49 ± 19 µM
- HAPT1 Vmax (HAPT1 [10]; STIB 247WT procyclics, 25 nM [3H]pentamidine): 0.008 ± 0.002 pmol/10^7 cells/s
- Loss of sensitivity on homozygous deletion of TbAT1 [11]: 2.5–3 fold
- LAPT1 Vmax (LAPT1 [12]; STIB 386MR procyclics): 1.2 ± 0.4 pmol/10^7 cells/s
- LAPT1 Vmax (LAPT1 [12]; STIB 386WT procyclics): 0.70 ± 0.15 pmol/10^7 cells/s
- Km (LAPT1 [12]; STIB 386MR procyclics): 51 ± 2 µM
- Km (LAPT1 [12]; STIB 386WT procyclics): 46 ± 9 µM
- HAPT1 Vmax (HAPT1 [13]; STIB 386WT procyclics, 25 nM [3H]pentamidine): 0.007 ± 0.002 pmol/10^7 cells/s
- Uptake of [3H]pentamidine compared with control (TbAQP3): not significantly different
- Resistance relative to parental line [2]: 74 fold
- Resistance relative to parental line [3]: 90 fold
- Susceptibility (T. b. brucei): +++ and +/− and ++ and −
- Sensitization by expression of TbAQP2 [4]: 40 fold
- Sensitization by expression of TbAQP3 ([4]; L. mexicana promastigotes expressing TbAQP3, two independent clones): 1.5–2.5 fold
- Increase of [3H]pentamidine uptake on expression of TbAQP2 (LAPT1 [14]; 1 μM pentamidine, B48 + TbAQP2 vs B48): 2.5 fold
- Uptake of [3H]pentamidine compared with control (LAPT1 [14]; 1 μM pentamidine, B48 compared with TbAT1-KO): not significantly different
- IC50 (LAPT1 [14]; read-out: IC50, inhibition of [3H]pentamidine uptake, low-affinity phase, 2T1 control cells, 30 nM [3H]pentamidine, 1 mM adenosine, n = 3): 29.9 ± 4.3 µM
- IC50 (LAPT1 [14]; read-out: IC50, inhibition of [3H]pentamidine uptake, aqp2 null cells, 30 nM [3H]pentamidine, 1 mM adenosine): 33.4 ± 9.5 µM
- Km (LAPT1 [14]; B48/AQP2 bloodstream forms): 66 ± 1 µM
- Km (LAPT1 [14]; P1000 bloodstream forms): 99 ± 24 µM

Compound: N=C(N)c1ccc(OCCCOc2ccc(C(=N)N)cc2)cc1 [propamidine]
- Ki (HAPT1 [7]): 15.2 ± 1.6 µM
- Ki (HAPT1 [10]): 14 ± 2 µM
- Ki (HAPT1 [13]): 22 ± 6 µM
- Ki (HAPT1 [15]; TbAT1-KO bloodstream forms, ref Matovu et al. 14): 13 ± 3 µM
- Ki (HAPT1 [15]; WT s427 bloodstream forms, ref De Koning 17): 4.6 ± 0.7 µM
- IC50, inhibition of [3H]pentamidine uptake (LAPT1 [14]; aqp2 null cells, 30 nM [3H]pentamidine, 1 mM adenosine): insensitive
- Ki (TbAQP2 [5]): 8.1 ± 0.8 µM

Compound: Nc1ncnc2c1ccn2[C@@H]1O[C@H](CO)[C@@H](O)[C@H]1O [tubercidin, 7-deazaadenosine]
- Increase in susceptibility on expression of TbAT1 ([1]; P < 0.001): > 20 fold
- EC50 ([1]; s427 WT, read-out: EC50): 0.23 ± 0.03 µM
- EC50 ([1]; tbat1−/− strain, read-out: EC50): 2.65 ± 0.23 µM
- Decrease in susceptibility ([1]; tbat1−/− strain relative to s427 WT): 10 fold

Compound: HAPT1 (Trypanosoma brucei brucei)
- Km ([16]; other: B48/AQP2 bloodstream forms): 0.046 ± 0.014 µM

Compound: TbAQP2 (Trypanosoma brucei brucei)
- Km ([16]; other: L. mexicana/TbAQP2 promastigotes): 0.055 ± 0.004 µM
